{"source": "patent US20030228635A1", "about": "“Cell proliferation assays and methods” (Renovar, Inc., priority 2002, published 2003)", "origin": "cited, not measured here", "system": "cells", "conditions": "cells labelled with CFSE; Lyons and Parish 1994", "data": [{"substance": "carboxy-fluorescein diacetate, succinimidyl ester [CFSE]", "values": [{"measurement": "effect on cellular function", "result": "does not adversely affect cellular function"}]}]}
